Assay results from patent US10004786B2 (Zealand Pharma A/S, priority 2009, dated 2018).
Numbered stars: 1 amine (or outer) side, 2 acyl side, 3 side chain; on linkers, the order of the positions; unused ones are H or OH. Square brackets hold non-standard residues; d marks the D form. Side chains are listed from the residue outwards. Peptide text beside a SMILES is read from it. * marks the point of attachment. γGlu = O=C(O)[C@H](CCC(=O)[*:2])N[*:1]; Palmitoyl = CCCCCCCCCCCCCCCC(=O)*; Aib = CC(C)(N)C(=O)O

Key:
[1] = Oral glucose tolerance test after 21 days s.c. administration in long term high fat fed mice; format: in vivo; conditions: 10 nmol/kg, long term high fat-fed C57BL/6J mice, two way ANOVA
Description: (§1) Male mice (Long term high fat fed C57Bl/6J, short term high fat fed C57Bl/6J and db/db) were acclimatized with free access to food and water. They were housed in groups of 5-6 in a light-, temperature-, and humidity-controlled room (12-hour light:12-hour dark cycle, lights On/Off at 2000/0800 hour; 24° C.; 50% relative humidity).
(§2) The animals were injected s.c. with 100 μl vehicle (once a day) for a period of three days to acclimatize the animals to handling and injections. Blood samples were taken from the eye or from the tip of the tail. The animals were randomized before treatment.
(§3) Mice were treated twice daily s.c. with GluGLP-1 agonist or vehicle (injection volume=2.5 ml/kg). Throughout the study, body weights were recorded daily and used to administer the body weight-corrected doses of peptide. Peptide solutions were prepared fresh immediately before dosing.
Oral glucose tolerance tests (OGTT) were performed after subjecting the animals to a short fast. To prevent confounding food intake, the animals were kept fasted during the OGTTs. After peptide dosing an initial blood sample was taken. […] The whole blood glucose (BG) was measured at t=15 min, t=30 min, t=60 min, t=90 min and t=120 min.
The BG concentration was analyzed by the immobilized glucose oxidase method using a drop of blood (<5 μl; Elite Autoanalyser, Bayer, Denmark) following the manufacturer's instructions. […]

[2] = Liver weight/body weight of C57BL/6J mice treated for 2 weeks; format: in vivo
Description: Mice were treated twice daily s.c. with Cpd. 1 and Cpd. 11 (at two doses: 0.5 and 5 nmol/kg) or vehicle for 2 weeks. Throughout the study, body weights were recorded daily and used to administer the body weight-corrected doses of peptide. On the day of sacrifice, the liver was exposed, and weighed.

[3] = Body weight gain in high fat fed C57BL/6J mice (10 days); format: in vivo; conditions: 5 nmol/kg b.i.d. s.c., short term high fat-fed C57BL/6J mice
Description: C57Bl/6J male mice, 6 weeks old, were acclimatized in their new environment for 4 weeks with free access to high fat diet (HFD) (D12492, Research Diet Inc., New Brunswick, USA) and water. The animals were injected s.c. with 100 μl vehicle for a period of three days to acclimatize the animals to handling and injections, prior to initiation of peptide treatment. […] Throughout the study, body weights were recorded daily and used to administer the body weight-corrected doses of peptide. All animals were sacrificed on the same day by cervical dislocation.
(§4) C57Bl/6J male mice on high fat diet (HFD) were treated (b.i.d.; s.c.) (0.5 and 5 nmol/kg) or vehicle. Body weights were recorded daily and used to administer the body weight-corrected doses of peptide throughout the study. Data are shown as mean±SEM in FIG. 7.

[4] = HbA1c in db/db mice after 28 days; format: in vivo; conditions: 4 weeks, 12.7 nmol/kg, P=0.03 Students t-test
Description: as §1, §2
Mice were treated twice daily s.c. with GluGLP-1 agonist or vehicle (injection volume=2.5 ml/kg). Throughout the study, body weights were recorded daily and used to administer the body weight-corrected doses of peptide. Peptide solutions were prepared fresh immediately before dosing. […]
The HbA1c determination is based on Turbidimetric INhibition ImmunoAssay (TINIA) in which HbA1c in the sample reacts with anti-HbA1c to form soluble antigen-antibody complexes. Additions of polyhaptens react with excess anti-HbA1c antibodies to form an insoluble antibody-polyhapten complex, which can be measured turbidimetrically. Liberated hemoglobin in the hemolyzed sample is converted to a derivative having a characteristic absorption spectrum, which is measured bichromatically during the preincubation phases. […]

[5] = Body weight after 21 days s.c. administration in long term high fat fed mice; format: in vivo; conditions: 21 days b.i.d. s.c., 10 nmol/kg, long term high fat-fed C57BL/6J mice; p<0.05
Description: as §1, §2, §3
as §4, with “Effect of 21 days s.c. administration of compound 11 on body weight was determined in long term high fat-fed C57BL/6J mice. C57Bl/6J” for “C57Bl/6J”, “with compound 11 (10” for “(0.5 and 5”, “4.” for “7.”

[6] = Plasma lipids after 3 weeks s.c. administration in 30 weeks high fat diet fed mice; format: in vivo, C57BL/6J mice; conditions: 10 nmol/kg twice daily s.c.
Description: The assay is an enzymatic colorimetric method. In the presence of magnesium ions, dextran sulfate selectively forms water-soluble complexes with LDL, VLDLA and chylomicrons, which are resistant to PEG-modified enzymes. The HDL cholesterol is determined enzymatically by cholesterol esterase and cholesterol oxidase coupled with PEG to the amino groups. Cholesterol esters are broken down quantitatively to free cholesterol and fatty acids. HDL cholesterol is enzymatically oxidized to choles-4-en-3-one and H2O2, and the formed H2O2 is measured colorimetrically (Cobas®; Application note HDLC3).
The direct determination of LDL takes advantage of the selective micellary solubilization of LDL by a nonionic detergent and the interaction of a sugar compound and lipoproteins (VLDL and chylomicrons). The combination of a sugar compound with detergent enables the selective determination of LDL in plasma. The test principle is the same as that of cholesterol and HDL, but due to the sugar and detergent only LDL-cholesterol esters are broken down to free cholesterol and fatty acids. Free cholesterol is then oxidized and the formed H2O2 is measured colorimetrically (Application note LDL_C, Cobas®).
The effect was measured on LDL, HDL and triglycerids (CHO: Total Cholesterol; HDL: High Density Cholesterol; LDL: Low Density Cholesterol; TRIG: Triglycerides; HDL/LDL: Ratio between HDL and LDL).

[7] = Pharmacokinetic screening in mouse plasma after subcutaneous administration; format: in vivo; conditions: sc, mice, 100 nmol/kg s.c., * = only two time points used for calculation
Description: Mice were dosed 100 nmol/kg subcutaneously (s.c.). The mice were sacrificed and the blood collected at the following time points; 0.5, 2, 4, 6, 16 and 24 h. Plasma samples were analyzed using protein precipitation, followed by solid phase extraction (SPE) and liquid chromatography mass spectrometry (LC-MS).
Pharmacokinetic profiles were determined for various acylated compounds.

- half-life [7]: 4.9 h
SMILES: CCCCCCCCCCCCCCCC(=O)N[C@@H](CCC(=O)NCCCC[C@H](NC(=O)[C@H](CO)NC(=O)[C@H](CC(=O)O)NC(=O)[C@H](CC(C)C)NC(=O)[C@H](Cc1ccc(O)cc1)NC(=O)[C@H](CCCCN)NC(=O)[C@H](CO)NC(=O)[C@H](Cc1ccc(O)cc1)NC(=O)[C@H](CC(=O)O)NC(=O)[C@H](CO)NC(=O)[C@@H](NC(=O)[C@H](Cc1ccccc1)NC(=O)[C@@H](NC(=O)CNC(=O)[C@H](CCC(N)=O)NC(=O)C(C)(C)NC(=O)[C@@H](N)Cc1c[nH]cn1)[C@@H](C)O)[C@@H](C)O)C(=O)N[C@@H](C)C(=O)N[C@@H](C)C(=O)N[C@@H](Cc1c[nH]cn1)C(=O)N[C@@H](CC(=O)O)C(=O)N[C@@H](Cc1ccccc1)C(=O)N[C@H](C(=O)N[C@@H](CCC(=O)O)C(=O)N[C@@H](Cc1c[nH]c2ccccc12)C(=O)N[C@@H](CC(C)C)C(=O)N[C@@H](CC(C)C)C(=O)N[C@@H](CCCNC(=N)N)C(=O)N[C@@H](C)C(N)=O)C(C)C)C(=O)O [Compound 11] (H-H[Aib]QGTFTSDYSKYLDSK([γGlu-Palmitoyl])AAHDFVEWLLRA-NH2)
- oral glucose tolerance [1]: significantly improved glucose tolerance
- liver weight/body weight ratio, low dose ([2]; 0.5 nmol/kg twice daily s.c.): did not affect
- liver weight/body weight ratio, high dose ([2]; 5 nmol/kg twice daily s.c.): did not affect
- change in liver size ([2]; repeated treatment, C57 healthy control mice, compared with compound 1): do not give rise to change in liver size
- body weight gain, high dose [3]: significantly decreased body weight gain at the high dose
- ΔHbA1c (%) compared to vehicle [4]: decreased ΔHbA1c (%) significantly
- body weight [5]: significantly decreased body weight
- HDL ([6]; P<0.001): significantly decreased
- LDL ([6]; P<0.001): significantly decreased
- cholesterol (total) ([6]; P<0.001): significantly decreased
- triglycerides ([6]; P<0.05): significantly decreased
- ratio HDL/LDL ([6]; p<0.001): increased significantly
